Experimental data reported in US20220017877A1, “BILIRUBIN OXIDASE ACTIVITY IMPROVING METHOD, AND BILIRUBIN OXIDASE PRODUCT” (OZEKI CORPORATION, priority 2018, published 2022).
Like-named read-outs stand apart in the source and are kept apart here.

Molecular target: T1, recombinant BOD (bilirubin oxidase) derived from Myrothecium verrucaria MT-1 (Albifimbria verrucaria, UniProt Q12737)
T1 construct: made in house; host or cells: Aspergillus sp
T1 sequence (Q12737 39-572): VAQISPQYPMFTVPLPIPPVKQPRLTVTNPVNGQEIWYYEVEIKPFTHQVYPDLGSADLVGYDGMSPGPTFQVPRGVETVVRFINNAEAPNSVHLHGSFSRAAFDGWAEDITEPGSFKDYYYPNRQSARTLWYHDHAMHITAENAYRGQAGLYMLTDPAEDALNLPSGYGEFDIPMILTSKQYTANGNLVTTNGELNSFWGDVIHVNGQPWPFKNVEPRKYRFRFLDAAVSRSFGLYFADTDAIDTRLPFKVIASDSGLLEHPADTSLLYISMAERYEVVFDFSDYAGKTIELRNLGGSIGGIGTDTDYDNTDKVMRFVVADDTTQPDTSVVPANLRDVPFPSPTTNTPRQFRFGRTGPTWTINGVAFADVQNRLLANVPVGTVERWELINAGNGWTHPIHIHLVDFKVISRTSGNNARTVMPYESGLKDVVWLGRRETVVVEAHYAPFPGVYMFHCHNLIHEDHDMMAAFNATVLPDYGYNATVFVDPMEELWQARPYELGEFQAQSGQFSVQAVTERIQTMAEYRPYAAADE
Assay: BOD activity after leaving the BOD solution with an activity improving agent at 5 to 50° C. in a deoxygenated atmosphere (Test Example 2)
Assay type: biochemical
Settings: for activity at 20000 µM / increase of BOD activity as compared with that prior to leaving: 20 mM
Excerpt: In Test Example 1, a BOD gene derived from a Myrothecium verrucaria MT-1 (GenBank accession number: D12579.1) was introduced into an Aspergillus sp., and then a recombinant BOD (hereinafter, also referred to simply as “BOD”) expressed in the Aspergillus sp. was purified by using a well-known technique and then used as the BOD. The BOD gene derived from the Myrothecium verrucaria MT-1 was codon-optimized in accordance with a gene sequence of the Aspergillus sp., and then introduced into the Aspergillus sp. Further, the BOD thus purified was dissolved in a 50 mM glycine-KOH (pH 8.5) buffer so that the concentration of the BOD became 1.0 mg/mL. Then, a resultant solution was used as a BOD enzyme solution.
The enzymatic activity of the BOD was measured as follows. To 1780 μL of a 50 mM potassium phosphate buffer (pH 6.5), 200 μL of a 20 mM ABTS substrate solution was added, so that a mixed solution (1980 μL) was prepared. This mixed solution was incubated for 1 min at 37° C. Thereafter, 20 μL of a solution containing the BOD (specifically, a BOD solution for evaluation, which will be described later) was added to the mixed solution, and a resultant mixed solution (2 mL) was incubated at 37° C. While the mixed solution was incubated, the absorbance of the mixed solution at a wavelength of 436 nm was measured immediately after that addition of the BOD solution for evaluation (at 0 seconds) and thereafter every 20 seconds. On the basis of (i) the absorbance of the mixed solution at a wavelength of 436 nm immediately after the addition of the BOD solution for evaluation and (ii) the absorbance of the mixed solution at a wavelength of 436 nm after a lapse of 1 minute from the addition of the BOD solution for evaluation, calculation was carried out for obtaining an increase rate per minute of the absorbance of the mixed solution at a wavelength of 436 nm after the addition of the BOD solution for evaluation. The BOD activity (unit) in the BOD solution for evaluation was calculated from the increase rate. In the present specification, the amount of enzyme for oxidizing 1 μmol of ABTS per minute was defined as one unit.
The following describes a specific test method in Test Example 2. A BOD solution containing an activity improving agent was prepared as in Test Example 1. Further, another BOD solution which contained no activity improving agent (to which no activity improving agent was added) was prepared and used as a control. In Test Example 2, L-ascorbic acid or uric acid was used as the activity improving agent. Moreover, the final concentration of L-ascorbic acid in the BOD solution was set to 4 mM, and the final concentration of uric acid in the BOD solution was set to 20 mM. In addition, in Test Example 2, the concentration of the BOD in the BOD enzyme solution was set to 3.0 mg/mL.
Each of the above BOD solutions and a deoxygenating agent (Anaero Pack-Kenki manufactured by Mitsubishi Gas Chemical Company, Inc.) were included in one container (pouch) which was not permeable to oxygen. Then, the container was sealed, so that a BOD container was prepared. The BOD container was left at room temperature (approximately 25° C.) for approximately 2 hours, so that an inner atmosphere of the container became the deoxygenated atmosphere. Thereafter, the BOD container was left in a thermostatic chamber set at 5° C., 10° C., 20° C., 30° C., 40° C., or 50° C. for a certain period of time. Here, (a) the BOD solution without any additive was left for 1 day, 3 days, 7 days, 14 days, or 29 days, (b) the BOD solution containing L-ascorbic acid was left for 1 day, 3 days, 7 days, or 14 days, and (c) the BOD solution containing uric acid was left for 1 day, 3 days, 8 days, 14 days, or 28 days. Three samples (BOD containers) were prepared for each condition. After leaving the BOD containers under the above conditions, the BOD solution was collected from each of the BOD containers and used as a BOD solution for evaluation. […]

O=c1[nH]c(=O)c2[nH]c(=O)[nH]c2[nH]1 [Uric acid, uric acid]
activity at 20000 µM (5° C., Day 0, read-out: Activity (%) Day 0): 100%
activity at 20000 µM (5° C., Day 1, read-out: Activity (%) Day 1): 116%
activity at 20000 µM (5° C., Day 3, read-out: Activity (%) Day 3): 113%
activity at 20000 µM (5° C., Day 8, read-out: Activity (%) Day 8): 140%
activity at 20000 µM (5° C., Day 14, read-out: Activity (%) Day 14): 137%
activity at 20000 µM (5° C., Day 28, read-out: Activity (%) Day 28): 144%
activity at 20000 µM (10° C., Day 0, read-out: Activity (%) Day 0): 100%
activity at 20000 µM (10° C., Day 1, read-out: Activity (%) Day 1): 123%
activity at 20000 µM (10° C., Day 3, read-out: Activity (%) Day 3): 123%
activity at 20000 µM (10° C., Day 8, read-out: Activity (%) Day 8): 159%
activity at 20000 µM (10° C., Day 14, read-out: Activity (%) Day 14): 144%
activity at 20000 µM (10° C., Day 28, read-out: Activity (%) Day 28): 169%
activity at 20000 µM (20° C., Day 0, read-out: Activity (%) Day 0): 100%
activity at 20000 µM (20° C., Day 1, read-out: Activity (%) Day 1): 134%
activity at 20000 µM (20° C., Day 3, read-out: Activity (%) Day 3): 137%
activity at 20000 µM (20° C., Day 8, read-out: Activity (%) Day 8): 179%
activity at 20000 µM (20° C., Day 14, read-out: Activity (%) Day 14): 173%
activity at 20000 µM (20° C., Day 28, read-out: Activity (%) Day 28): 206%
activity at 20000 µM (30° C., Day 0, read-out: Activity (%) Day 0): 100%
activity at 20000 µM (30° C., Day 1, read-out: Activity (%) Day 1): 144%
activity at 20000 µM (30° C., Day 3, read-out: Activity (%) Day 3): 181%
activity at 20000 µM (30° C., Day 8, read-out: Activity (%) Day 8): 202%
activity at 20000 µM (30° C., Day 14, read-out: Activity (%) Day 14): 212%
activity at 20000 µM (30° C., Day 28, read-out: Activity (%) Day 28): 215%
activity at 20000 µM (40° C., Day 0, read-out: Activity (%) Day 0): 100%
activity at 20000 µM (40° C., Day 1, read-out: Activity (%) Day 1): 176%
activity at 20000 µM (40° C., Day 3, read-out: Activity (%) Day 3): 206%
activity at 20000 µM (40° C., Day 8, read-out: Activity (%) Day 8): 216%
activity at 20000 µM (40° C., Day 14, read-out: Activity (%) Day 14): 194%
activity at 20000 µM (40° C., Day 28, read-out: Activity (%) Day 28): 217%
activity at 20000 µM (50° C., Day 0, read-out: Activity (%) Day 0): 100%
activity at 20000 µM (50° C., Day 1, read-out: Activity (%) Day 1): 210%
activity at 20000 µM (50° C., Day 3, read-out: Activity (%) Day 3): 196%
activity at 20000 µM (50° C., Day 8, read-out: Activity (%) Day 8): 175%
activity at 20000 µM (50° C., Day 14, read-out: Activity (%) Day 14): 195%
activity at 20000 µM (50° C., Day 28, read-out: Activity (%) Day 28): 174%
increase of BOD activity as compared with that prior to leaving (eight days at 20° C.): approximately 1.8 times
increase of BOD activity as compared with that prior to leaving (three days at 30° C.): approximately 1.8 times
BOD activity increase at 5° C. compared with not lower than 10° C. (BOD containers left at 5° C.): not found to be increased to an extend that was achieved
